# Source: patent US20150259344A1, “IMIDAZOLE DERIVATIVE” (DAINIPPON SUMITOMO PHARMA CO., LTD., priority 2012, published 2015)
# Molecular target: T1, human α7 nAChR (Homo sapiens, UniProt P36544)
# T1 construct: expressed in transfected cells
# Experiment: Evaluation of PAM activity with human α7 nACh receptor stably expressing cells (aequorin luminescence, FDSS7000)
# Format: cell-based
# Conditions: 1 μM test compound (values marked *, footnote of Table 25); ACh at EC20; ratio of RLU (Max-Min) to control wells; read-out: α7PAM (%) @1 μM
# How it was run: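 Human α7 nAChR stable cells loaded with 4 μM Viviren (final) for 4 h at room temperature in the dark. Compounds in Hanks/20 mM HEPES/0.2% BSA were added and luminescence recorded on FDSS7000. PAM activity = RLU (Max-Min) ratio of test wells to control wells.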
# T1 sequence (P36544 23-502): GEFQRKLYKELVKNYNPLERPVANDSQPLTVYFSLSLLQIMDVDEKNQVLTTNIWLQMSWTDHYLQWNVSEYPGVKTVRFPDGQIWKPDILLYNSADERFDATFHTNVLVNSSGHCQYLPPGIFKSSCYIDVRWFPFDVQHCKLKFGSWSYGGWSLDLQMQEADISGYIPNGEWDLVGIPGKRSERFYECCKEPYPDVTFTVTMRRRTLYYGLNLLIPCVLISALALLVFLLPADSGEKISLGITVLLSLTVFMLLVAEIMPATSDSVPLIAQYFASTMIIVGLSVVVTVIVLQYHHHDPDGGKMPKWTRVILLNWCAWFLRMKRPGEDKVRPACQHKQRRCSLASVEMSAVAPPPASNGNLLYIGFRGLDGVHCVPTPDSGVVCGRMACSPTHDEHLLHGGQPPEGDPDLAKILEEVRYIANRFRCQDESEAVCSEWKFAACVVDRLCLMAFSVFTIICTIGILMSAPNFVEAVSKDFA
row,Structure (SMILES),activity at 1 µM [%]
1,N#Cc1c(-c2ccc(F)cc2F)ncn1[C@H]1C[C@H]2CC[C@@H](C1)N2C(=O)C1CCC(F)(F)CC1 [Example 443],368
2,CC(C)(C)C(=O)N[C@H]1CC[C@@H](n2cnc(-c3ccc(C(F)(F)F)cc3)c2C#N)CC1 [Example 199],230
3,O=C(C1CCC(F)(F)CC1)N1[C@@H]2CC[C@H]1C[C@@H](n1cnc(-c3cc(F)ccc3F)c1)C2 [Example 430],110
4,O=C(N[C@H]1CC[C@@H](n2cnc(-c3ccc(F)cc3)c2Cl)CC1)c1ccc(F)cc1 [Example 184],303
5,N#Cc1c(-c2cc(F)ccc2F)ncn1[C@@H]1C[C@H]2CC[C@@H](C1)N2C(=O)C1CCC(F)(F)CC1 [Example 464],124
6,O=C(NCC1CCCCC1)N1CCC(n2cnc(-c3c(F)cccc3F)c2)CC1 [Example 11],116
7,O=C(NC1CCOCC1)[C@H]1CC[C@@H](n2cnc(-c3cccc(F)c3F)c2)CC1 [Example 358],126

# Now from value to compound:
row,activity at 1 µM [%],Structure (SMILES)
1,126,COC1CCC(NC(=O)N2CCC(n3cnc(-c4ccc(F)cc4)c3)CC2)CC1 (stereo not drawn) [Example 33]
2,233,CC(C)(C)C(=O)N[C@H]1CC[C@@H](n2cnc(-c3ccc(C(F)(F)F)cc3)c2)CC1 [Example 161]
3,323,O=C(N[C@H]1CC[C@@H](n2cnc(-c3ccc(C(F)(F)F)cc3)c2)CC1)C1CCC(F)(F)CC1 [Example 162]
4,467,CC(C)(F)C(=O)N[C@H]1CC[C@@H](n2cnc(-c3ccccc3OC(F)(F)F)c2Cl)CC1 [Example 331]
5,380,CC(C)(F)C(=O)N[C@H]1CC[C@@H](n2cnc(-c3cc(F)cc(F)c3)c2C#N)CC1 [Example 343]
6,600,CC(C)(F)C(=O)N[C@H]1CC[C@@H](n2cnc(-c3cc(OC(F)(F)F)ccc3F)c2)CC1 [Example 304]

# Same assay, conditions: 10 μM test compound; ACh at EC20; ratio of RLU (Max-Min) to control wells
row,α7PAM (%) @10 μM [%],Structure (SMILES)
1,476,"CC(C)(F)C(=O)N[C@H]1CC[C@@H](n2cnc(-c3ccc(F)cc3)c2)CC1 [Example 8, 2-Fluoro-N-{cis-4-[4-(4-fluorophenyl)-1H-imidazol-1-yl]cyclohexyl}-2-methylpropanamide]"

# Same assay, conditions: 10 μM test compound; ACh at EC20; ratio of RLU (Max-Min) to control wells; read-out: α7PAM (%) @10 μM
row,Structure (SMILES),activity at 10 µM [%]
1,N#Cc1c(-c2ccc(F)cc2)ncn1[C@H]1CC[C@@H](C(=O)NC2CCOCC2)CC1 [Example 373],966
2,O=C(NC1CCCCCC1)N1CCC(n2cnc(-c3ccccc3)c2)CC1 [Example 51],520
3,O=C(C1CCC(F)(F)CC1)N1[C@@H]2CC[C@H]1C[C@H](n1cnc(-c3cccc(F)c3F)c1)C2 [Example 450],128
4,O=C(C1CCC(F)(F)CC1)N1[C@@H]2CC[C@H]1C[C@@H](n1cnc(-c3ccc(F)cc3)c1)C2 [Example 425],155
5,O=C(Nc1ccccc1F)N1CCC(n2cnc(-c3ccc(C(F)(F)F)cc3)c2)CC1 [Example 24],228
6,N#Cc1c(-c2ccc(F)cc2)ncn1[C@@H]1C[C@H]2CC[C@@H](C1)N2C(=O)NC1CCCCC1 [Example 421],426
7,N#Cc1c(-c2cc(F)ccc2F)ncn1[C@H]1C[C@H]2CC[C@@H](C1)N2C(=O)C1CCC(F)(F)CC1 [Example 444],208
8,O=C(NC1CCCCC1)N1CCC(n2cc(-c3ccccc3)nc2Cl)CC1 [Example 116],131
9,O=C(NC1CCCCC1)N1CCC(n2cnc(-c3ccncc3)c2Cl)CC1 [Example 135],154
10,O=C(NC1CCOCC1)N1CCC(n2cnc(-c3ccccc3F)c2Cl)CC1 [Example 252],648
11,O=C(C1CCC(F)(F)CC1)N1[C@@H]2CC[C@H]1C[C@@H](n1cnc(-c3ccccc3F)c1)C2 [Example 427],305
12,Cc1c(-c2ccccc2)ncn1C1CCN(C(=O)NC2CCCCC2)CC1 [Example 102],641
13,O=C(NC1CCOCC1)N1CCC(n2cnc(-c3ccc(C(F)(F)F)cc3)c2)CC1 [Example 29],378
14,N#Cc1c(-c2ccc(C(F)(F)F)cc2)ncn1[C@H]1CC[C@@H](C(=O)NC2CCOCC2)CC1 [Example 377],988
15,O=C(N[C@H]1CC[C@@H](n2cnc(-c3ccc(F)cc3)c2Cl)CC1)C1CCOCC1 [Example 323],421
16,O=C(NC1CCC(F)(F)CC1)N1CCC(n2cnc(-c3cccs3)c2)CC1 [Example 125],466
17,O=C(C1CCOCC1)N1[C@@H]2CC[C@H]1C[C@H](n1cnc(-c3cc(F)ccc3F)c1Cl)C2 [Example 460],390
18,O=C(C1CCC(F)(F)CC1)N1[C@@H]2CC[C@H]1C[C@H](n1cnc(-c3ccc(F)cc3)c1)C2 [Example 446],143
19,O=C(NC1CCCC1)N1CCC(n2cnc(-c3cccc(F)c3)c2Cl)CC1 [Example 83],671
20,O=C(NC1CCCCC1)N1CCC(n2cnc(-c3ccc(OC(F)F)cc3)c2)CC1 [Example 54],371
21,COC1CCC(C(=O)N2CCC(n3cnc(-c4ccccc4)c3)CC2)CC1 (stereo not drawn) [Example 142],163
22,O=C(NC1CCC(F)(F)CC1)N1[C@@H]2CC[C@H]1C[C@H](n1cnc(-c3cc(F)ccc3F)c1Cl)C2 [Example 419],913
23,O=C(C1CCC(F)(F)CC1)N1[C@@H]2CC[C@H]1C[C@H](n1cnc(-c3ccccc3F)c1)C2 [Example 448],276
24,Cc1c(-c2ccc(F)cc2)ncn1[C@H]1CC[C@@H](NC(=O)C2CCOCC2)CC1 [Example 352],164
25,O=C(NC1CCC(F)(F)CC1)N1CCC(n2cnc(-c3ccnc(Cl)c3)c2)CC1 [Example 120],208
26,CC(C)(F)C(=O)N1CCC(n2cnc(-c3ccc(F)cc3)c2Cl)CC1 [Example 263],193
27,O=C(Nc1ccccc1F)N1CCC(n2cnc(-c3c(F)cccc3F)c2)CC1 [Example 12],283
28,O=C(NC1CC2CCC1C2)N1CCC(n2cnc(-c3ccccc3)c2)CC1 (stereo not drawn) [Example 38],311
29,O=C(NC1CCCCC1)N1CCC(n2cnc(-c3cccc(F)c3)c2Cl)CC1 [Example 84],747
30,O=C(NC1CCC(F)(F)CC1)N1[C@@H]2CC[C@H]1C[C@@H](n1cnc(-c3cccc(F)c3F)c1)C2 [Example 386],880

# Next, values leading:
row,activity at 10 µM [%],Structure (SMILES)
1,469,CC(C)(F)C(=O)N[C@H]1CC[C@@H](n2cnc(-c3cccc(Cl)c3)c2)CC1 [Example 286]
2,154,CC(C)(F)C(=O)N[C@H]1CC[C@@H](n2cnc(-c3ccc(F)c(OC(F)(F)F)c3)c2Cl)CC1 [Example 330]
3,256,O=C(NC1CCCCC1)N1CCC(n2cnc(-c3cccc(OC(F)F)c3)c2)CC1 [Example 53]
4,187,CC(C)(F)C(=O)N[C@H]1CC[C@@H](n2cnc(-c3cccc(C(F)(F)F)c3)c2Cl)CC1 [Example 193]
5,166,CC(C)(F)C(=O)N[C@H]1CC[C@@H](n2cnc(-c3cccc(OC(F)(F)F)c3)c2)CC1 [Example 298]
6,464,"CC(C)(F)C(=O)N[C@H]1CC[C@@H](n2cnc(-c3ccc(F)cc3)c2C#N)CC1 [Example 332, N-{cis-4-[5-cyano-4-(4-fluorophenyl)-1H-imidazol-1-yl]cyclohexyl}-2-fluoro-2-methylpropanamide]"
7,194,CC(C)(C(=O)N[C@H]1CC[C@@H](n2cnc(-c3ccc(F)cc3)c2)CC1)C(F)(F)F [Example 290]
8,314,CC(C)(C)C(=O)N[C@H]1CC[C@@H](n2cnc(-c3ccc(Cl)cc3)c2Cl)CC1 [Example 322]
9,480,CC(C)(F)C(=O)N[C@H]1CC[C@@H](n2cnc(-c3ccccc3)c2Cl)CC1 [Example 172]
10,563,O=C(NC1CCCCC1)N1CCC(n2cnc(-c3ccc(F)c(F)c3)c2)CC1 [Example 26]
11,656,O=C(NC1CCCCC1)N1CCC(n2cnc(-c3ccc(Cl)cc3)c2)CC1 [Example 20]
12,591,CC(C)(F)C(=O)N[C@H]1CC[C@@H](n2cnc(-c3c(F)cc(F)cc3F)c2)CC1 [Example 314]
13,229,O=C(N[C@H]1CC[C@@H](n2cnc(-c3ccc(F)cc3)c2)CC1)C1CCOCC1 [Example 282]
14,317,CC(C)(C)NC(=O)N1CCC(n2cnc(-c3ccccc3F)c2)CC1 [Example 67]
15,224,"CC(C)(F)C(=O)N[C@H]1CC[C@@H](n2cnc(-c3ccc(C(F)(F)F)cc3)c2C#N)CC1 [Example 201, N-(cis-4-{5-cyano-4-[4-(trifluoromethyl)phenyl]-1H-imidazol-1-yl}cyclohexyl)-2-fluoro-2-methylpropanamide]"
16,208,CC(C)(F)C(=O)N[C@H]1CC[C@@H](n2cnc(-c3ccc(OC(F)(F)F)cc3F)c2)CC1 [Example 303]
17,110,O=C(N[C@H]1CC[C@H](n2cnc(-c3ccccc3)c2)CC1)C1CCC(F)(F)CC1 [Example 205]
18,149,CC(C)(C)NC(=O)N1CCC(n2cnc(-c3cccc(F)c3)c2)CC1 [Example 64]

# Same assay, conditions: GH4-C1, 10 μM test compound; ratio of RLU (Max-Min) of test wells to control wells after ACh at EC20; GH4C1 cells expressing human α7 nAChR and aequorin; read-out: α7PAM (%) @10 μM
row,Structure (SMILES),activity at 10 µM [%]
1,CC(C)(C)NC(=O)[C@H]1CC[C@H](n2cnc(-c3ccccc3)c2Cl)CC1 [Example 234],130
2,O=C(NC1CCCCC1)[C@H]1CC[C@H](n2cnc(-c3ccccc3)c2)CC1 [Example 231],149

# Same assay, conditions: comparison across Tables 18 to 25
row,PAM activity for α7 nAChR (in words),Structure (SMILES)
1,stronger PAM activity than others,O=C(NC1CCOCC1)[C@H]1CC[C@@H](n2cnc(-c3ccc(Cl)cc3)c2Cl)CC1 [Example 363]
2,stronger PAM activity than others,N#Cc1c(-c2ccc(OC(F)(F)F)cc2)ncn1[C@H]1CC[C@@H](C(=O)NC2CCOCC2)CC1 [Example 380]
